According to patent publication US20070142392A1, “Uses of rifamycins” (ActivBiotics, Inc., priority 2005, published 2007):
In brackets after ≈: the same amount, converted by molar mass.

What was measured:
Format in all cases: cell-based
S. aureus = experiment: MIC values, S. aureus (Tables 1-4)
S. pneumo. = experiment: MIC values, S. pneumo. (Tables 1-4)
E. faecalis = experiment: MIC values, E. faecalis (Tables 1-4)
H. flu = system: H. flu
E. coli = experiment: MIC values, E. coli (Tables 1-4)

| SMILES | MIC S. aureus (S. aureus) [µg/mL] | MIC S. pneumo. (S. pneumo.) [µg/mL] | MIC E. faecalis (E. faecalis) [µg/mL] | MIC H. flu (H. flu) [µg/mL] | MIC E. coli (E. coli) [µg/mL] |
| --- | --- | --- | --- | --- | --- |
| CO[C@H]1/C=C/O[C@@]2(C)Oc3c(C)c(O)c4c(=O)c(c5oc6cc(N7C[C@@H]8CCCN(C)[C@@H]8C7)cc(O)c6nc-5c4c3C2=O)NC(=O)/C(C)=C\C=C\[C@H](C)[C@H](O)[C@@H](C)[C@@H](O)[C@@H](C)[C@H](O)[C@@H]1C [Compound 59] | 0.004 (≈ 0.00446 µM) | 0.001 (≈ 0.00111 µM) | 0.06 (≈ 0.0669 µM) | 0.12 (≈ 0.134 µM) | 4 (≈ 4.46 µM) |
| COC1C=COC2(C)Oc3c(C)c(O)c4c(=O)c(c5oc6cc(N7CC(C)NCC7C)cc(O)c6nc-5c4c3C2=O)NC(=O)C(C)=CC=CC(C)C(O)C(C)C(O)C(C)C(O)C1C (centres unmarked) [Compound 100] | 0.004 (≈ 0.00459 µM) | 0.0005 (≈ 0.000574 µM) | 0.12 (≈ 0.138 µM) | 0.25 (≈ 0.287 µM) | 4 (≈ 4.59 µM) |
| CO[C@H]1/C=C/O[C@@]2(C)Oc3c(C)c(O)c4c(=O)c(c5oc6cc(N7CCC(C)(NC(C)=O)CC7)cc(O)c6nc-5c4c3C2=O)NC(=O)/C(C)=C\C=C\[C@H](C)[C@H](O)[C@@H](C)[C@@H](O)[C@@H](C)[C@H](O)[C@@H]1C [Compound 74] | 0.03 (≈ 0.0329 µM) | 0.001 (≈ 0.0011 µM) | 0.5 (≈ 0.548 µM) | 0.12 (≈ 0.131 µM) | >8 |
| CO[C@H]1/C=C/O[C@@]2(C)Oc3c(C)c(O)c4c(=O)c(c5oc6cc(F)ccc6nc-5c4c3C2=O)NC(=O)/C(C)=C\C=C\[C@H](C)[C@H](O)[C@@H](C)[C@@H](O)[C@@H](C)[C@H](O)[C@@H]1C [Compound 139] | 0.03 (≈ 0.0394 µM) | 0.03 (≈ 0.0394 µM) | 0.5 (≈ 0.657 µM) | 0.5 (≈ 0.657 µM) | >8 |
| CO[C@H]1/C=C/O[C@@]2(C)Oc3c(C)c(O)c4c(=O)c(c5oc6cc(N7C[C@@H](C)N[C@@H](C)C7)cc(O)c6nc-5c4c3C2=O)NC(=O)/C(C)=C\C=C\[C@H](C)[C@H](O)[C@@H](C)[C@@H](O)[C@@H](C)[C@H](O)[C@@H]1C [Compound 90] | 0.008 (≈ 0.00918 µM) | 0.0005 (≈ 0.000574 µM) | 0.06 (≈ 0.0689 µM) | 0.25 (≈ 0.287 µM) | 4 (≈ 4.59 µM) |
| CO[C@H]1/C=C/O[C@@]2(C)Oc3c(C)c(O)c4c(=O)c(c5oc6cc(N7CCN(CC8CC8)CC7)cc(O)c6nc-5c4c3C2=O)NC(=O)/C(C)=C\C=C\[C@H](C)[C@H](O)[C@@H](C)[C@@H](O)[C@@H](C)[C@H](O)[C@@H]1C [Compound 99] | 0.008 (≈ 0.00892 µM) | 0.0005 (≈ 0.000557 µM) | 0.06 (≈ 0.0669 µM) | 0.25 (≈ 0.279 µM) | 2 (≈ 2.23 µM) |
| CCc1cc2nc3c4c5c6c(C)c(O)c4c(=O)c(c-3oc2cc1N1CCCCC1)NC(=O)/C(C)=C\C=C\[C@H](C)[C@H](O)[C@@H](C)[C@@H](O)[C@@H](C)[C@H](O)[C@H](C)[C@@H](OC)/C=C/O[C@@](C)(O6)C5=O [Compound 111] | 1 (≈ 1.17 µM) | 0.12 (≈ 0.141 µM) | 4 (≈ 4.68 µM) | 2 (≈ 2.34 µM) | 1 (≈ 1.17 µM) |
| CO[C@H]1/C=C/O[C@@]2(C)Oc3c(C)c(O)c4c(=O)c(c5oc6cc(N7CCC(C)(N(C)C)CC7)cc(O)c6nc-5c4c3C2=O)NC(=O)/C(C)=C\C=C\[C@H](C)[C@H](O)[C@@H](C)[C@@H](O)[C@@H](C)[C@H](OC(C)=O)[C@@H]1C [Compound 71] | 0.008 (≈ 0.0085 µM) | 0.00012 (≈ 0.000128 µM) | 0.25 (≈ 0.266 µM) | 0.5 (≈ 0.531 µM) | 4 (≈ 4.25 µM) |
| CO[C@H]1/C=C/O[C@@]2(C)Oc3c(C)c(O)c4c(=O)c(c5oc6cc(N(C)C7CCN(C)CC7)cc(O)c6nc-5c4c3C2=O)NC(=O)/C(C)=C\C=C\[C@H](C)[C@H](O)[C@@H](C)[C@@H](O)[C@@H](C)[C@H](O)[C@@H]1C [Compound 129] | 0.004 (≈ 0.00452 µM) | 0.00025 (≈ 0.000282 µM) | 0.5 (≈ 0.565 µM) | 0.25 (≈ 0.282 µM) | 4 (≈ 4.52 µM) |
| COC1C=COC2(C)Oc3c(C)c(O)c4c(=O)c(c5oc6cc(N7CC8CCCN(C(C)=O)C8C7)cc(O)c6nc-5c4c3C2=O)NC(=O)C(C)=CC=CC(C)C(O)C(C)C(O)C(C)C(OC(C)=O)C1C (centres unmarked) [Compound 47] | 0.008 (≈ 0.00827 µM) | 0.002 (≈ 0.00207 µM) | 1 (≈ 1.03 µM) | 0.25 (≈ 0.259 µM) | >8 |
| COC1C=COC2(C)Oc3c(C)c(O)c4c(=O)c(c5oc6cc(N7CC8CCCNC8C7)cc(O)c6nc-5c4c3C2=O)NC(=O)C(C)=CC=CC(C)C(O)C(C)C(O)C(C)C(OC(C)=O)C1C (centres unmarked) [Compound 143] | 0.004 (≈ 0.00432 µM) | 0.00025 (≈ 0.00027 µM) | 0.12 (≈ 0.13 µM) | 0.25 (≈ 0.27 µM) | 8 (≈ 8.65 µM) |
| CO[C@H]1/C=C/O[C@@]2(C)Oc3c(C)c(O)c4c(=O)c(c5oc6cc(N7CCC(NC(=O)OC(C)C)CC7)cc(O)c6nc-5c4c3C2=O)NC(=O)/C(C)=C\C=C\[C@H](C)[C@H](O)[C@@H](C)[C@@H](O)[C@@H](C)[C@H](O)[C@@H]1C [Compound 29] | 0.008 (≈ 0.00848 µM) | 0.00012 (≈ 0.000127 µM) | 2 (≈ 2.12 µM) | 1 (≈ 1.06 µM) | >8 |
| CO[C@H]1/C=C/O[C@@]2(C)Oc3c(C)c(O)c4c(=O)c(c5oc6ccc(F)cc6nc-5c4c3C2=O)NC(=O)/C(C)=C\C=C\[C@H](C)[C@H](O)[C@@H](C)[C@@H](O)[C@@H](C)[C@H](O)[C@@H]1C [Compound 138] | 0.03 (≈ 0.0394 µM) | 0.06 (≈ 0.0789 µM) | 0.5 (≈ 0.657 µM) | 0.5 (≈ 0.657 µM) | >8 |
| CO[C@H]1/C=C/O[C@@]2(C)Oc3c(C)c(O)c4c(=O)c(c5oc6cc(N7CCC(N(C)C)CC7)cc(O)c6nc-5c4c3C2=O)NC(=O)/C(C)=C\C=C\[C@H](C)[C@H](O)[C@@H](C)[C@@H](O)[C@@H](C)[C@H](O)[C@@H]1C [Compound 18] | 0.004 (≈ 0.00452 µM) | 0.00012 (≈ 0.000136 µM) | 0.12 (≈ 0.136 µM) | 0.5 (≈ 0.565 µM) | 4 (≈ 4.52 µM) |
| COC(=O)NC1CCN(c2cc(O)c3nc4c5c6c7c(C)c(O)c5c(=O)c(c-4oc3c2)NC(=O)/C(C)=C\C=C\[C@H](C)[C@H](O)[C@@H](C)[C@@H](O)[C@@H](C)[C@H](OC(C)=O)[C@H](C)[C@@H](OC)/C=C/O[C@@](C)(O7)C6=O)CC1 [Compound 32] | 2 (≈ 2.09 µM) | 4 (≈ 4.18 µM) | >8 | >8 | >8 |
| CCOC(=O)C1CCN(c2cc(O)c3nc4c5c6c7c(C)c(O)c5c(=O)c(c-4oc3c2)NC(=O)/C(C)=C\C=C\[C@H](C)[C@H](O)[C@@H](C)[C@@H](O)[C@@H](C)[C@H](O)[C@H](C)[C@@H](OC)/C=C/O[C@@](C)(O7)C6=O)CC1 [Compound 113] | 0.004 (≈ 0.00438 µM) | 0.008 (≈ 0.00875 µM) | 0.5 (≈ 0.547 µM) | 0.12 (≈ 0.131 µM) | >8 |
| CCOC(=O)NC1C2CN(c3cc(O)c4nc5c6c7c8c(C)c(O)c6c(=O)c(c-5oc4c3)NC(=O)C(C)=CC=CC(C)C(O)C(C)C(O)C(C)C(OC(C)=O)C(C)C(OC)C=COC(C)(O8)C7=O)CC21 (centres unmarked) [Compound 21] | 0.004 (≈ 0.00413 µM) | 0.001 (≈ 0.00103 µM) | 0.12 (≈ 0.124 µM) | 0.5 (≈ 0.516 µM) | 4 (≈ 4.13 µM) |
| CCCS(=O)(=O)NC1CCN(c2cc(O)c3nc4c5c6c7c(C)c(O)c5c(=O)c(c-4oc3c2)NC(=O)/C(C)=C\C=C\[C@H](C)[C@H](O)[C@@H](C)[C@@H](O)[C@@H](C)[C@H](OC(C)=O)[C@H](C)[C@@H](OC)/C=C/O[C@@](C)(O7)C6=O)CC1 [Compound 35] | 0.015 (≈ 0.0149 µM) | 0.00025 (≈ 0.000249 µM) | 4 (≈ 3.98 µM) | 0.5 (≈ 0.497 µM) | 8 (≈ 7.96 µM) |
| COc1c(N2CCCC2)cc(C)c2nc3c4c5c6c(C)c(O)c4c(=O)c(c-3oc12)NC(=O)/C(C)=C\C=C\[C@H](C)[C@H](O)[C@@H](C)[C@@H](O)[C@@H](C)[C@H](O)[C@H](C)[C@@H](OC)/C=C/O[C@@](C)(O6)C5=O [Compound 121] | 0.06 (≈ 0.0701 µM) | 0.03 (≈ 0.035 µM) | 2 (≈ 2.34 µM) | 0.12 (≈ 0.14 µM) | 8 (≈ 9.35 µM) |
